From ChEMBL document CHEMBL5465560, “Selectivity Literature for EUbOPEN Chemogenomic Library” (2024) come the findings set out here.

Each structure is given as a SMILES string. Changes are numbered by the printed parent chain.

Conditions in all cases: at 1 µM
The test system of assay [1] is T1, Receptor-type tyrosine-protein kinase FLT3 (Homo sapiens), P36888 [D835V].
T1 sequence (whole entry): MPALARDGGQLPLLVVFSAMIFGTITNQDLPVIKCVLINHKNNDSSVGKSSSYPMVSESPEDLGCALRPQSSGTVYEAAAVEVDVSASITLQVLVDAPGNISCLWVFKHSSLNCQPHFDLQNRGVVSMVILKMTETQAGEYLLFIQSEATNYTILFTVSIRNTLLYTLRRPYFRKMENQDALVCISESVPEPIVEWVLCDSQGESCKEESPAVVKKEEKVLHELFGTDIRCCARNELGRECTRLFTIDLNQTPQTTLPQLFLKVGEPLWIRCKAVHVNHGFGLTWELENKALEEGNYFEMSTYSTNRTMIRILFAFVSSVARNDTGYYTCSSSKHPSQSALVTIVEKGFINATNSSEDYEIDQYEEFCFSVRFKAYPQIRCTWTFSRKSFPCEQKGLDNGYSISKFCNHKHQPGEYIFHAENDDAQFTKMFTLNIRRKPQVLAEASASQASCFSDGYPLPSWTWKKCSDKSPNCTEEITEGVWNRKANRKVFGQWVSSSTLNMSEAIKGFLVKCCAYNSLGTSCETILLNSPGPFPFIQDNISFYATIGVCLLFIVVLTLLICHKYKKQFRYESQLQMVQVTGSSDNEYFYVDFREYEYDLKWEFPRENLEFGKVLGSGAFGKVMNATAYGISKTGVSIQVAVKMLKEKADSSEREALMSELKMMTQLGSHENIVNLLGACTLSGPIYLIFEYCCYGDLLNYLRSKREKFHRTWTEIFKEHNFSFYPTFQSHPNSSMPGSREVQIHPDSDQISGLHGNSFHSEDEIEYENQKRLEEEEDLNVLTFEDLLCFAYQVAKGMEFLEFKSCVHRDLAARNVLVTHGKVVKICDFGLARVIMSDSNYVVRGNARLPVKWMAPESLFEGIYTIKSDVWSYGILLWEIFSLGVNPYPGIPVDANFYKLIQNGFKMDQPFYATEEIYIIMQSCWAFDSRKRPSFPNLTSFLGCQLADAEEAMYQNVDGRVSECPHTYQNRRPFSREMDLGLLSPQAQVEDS
Put plainly: (§1) Selectivity interaction (KinomeScan (DiscoverX)) EUB0001079a FLT3.

The target in assay [2] is Receptor-type tyrosine-protein kinase FLT3 (Homo sapiens) (UniProt P36888). The assay is described as §1.
Assay [3] concerns T2, Receptor-type tyrosine-protein kinase FLT3 (Homo sapiens), P36888 [N841I].
T2 sequence (whole entry): T1 sequence (whole entry) with V835D, N841I
Described as §1.

Assay [4] relates to Receptor-type tyrosine-protein kinase FLT3 (Homo sapiens), P36888 [UNDEFINED MUTATION]. The assay is described as §1.
Assay [5] concerns T3, Receptor-type tyrosine-protein kinase FLT3 (Homo sapiens), P36888 [D835H].
T3 sequence (whole entry): T1 sequence (whole entry) with V835H
Described as §1.

`Nc1cnc(N2CCc3cc(S(=O)(=O)Nc4c(F)cc(Cl)cc4F)cc(N4CCCC4=O)c32)nc1` [TP-020n]: the % of control came to 100% in assay [1]; 81% in assay [2]; 89% in assay [3]; 92% in assay [4]; 100% in assay [5].
